Patent publication US4818764A, “Imidazoline derivative and method of treating depression therewith” (priority 1980, dated 1989)
“Also recorded” adds a separate entry of the source. Structures can show the parent of a compound that is named as a salt.

Key:
[1] = system: DOCA hypertensive rats; test: Effect on blood pressure and heart rate of conscious DOCA hypertensive rats; format: in vivo, rat
Excerpt: Results are given in Table 5 in terms of peak percentage fall in B.P.

[2] = system: postsynaptic α-adrenoreceptor; test: Antagonism of clonidine postsynaptic effects (blood pressure increases) after oral dosing, pithed rat; format: in vivo
[3] = system: presynaptic α-adrenoreceptor; test: Reversal of guanabenz block of the anococcygeus muscle of the pithed rat, intravenous; format: in vivo; settings: for Intravenous dose of antagonist causing 50% reversal of guanabenz block of anococcygeus muscle: pithed rat, guanabenz acetate 30 μg/kg i.v.
[4] = system: clonidine-induced hypothermia; test: Antagonism of clonidine-induced hypothermia in mice; format: in vivo
[5] = system: postsynaptic α-adrenoreceptors (rat anococcygeus muscle); test: Postsynaptic α-adrenoreceptor antagonism vs noradrenaline contractions in isolated rat anococcygeus muscle; format: cell-based; settings: mean of minimum 5 experiments, "<" means inactive at a concentration which would have given the pA indicated
Excerpt: (§1) This in vitro model is particularly useful as an initial screen for studying presynaptic activity in isolation since the physiological nature of the vas deferens tissue is such that the post synaptic receptors located therein are particularly inaccessible to exogenous agents. In consequence an alternative tissue, the rat anococcygeus muscle is used to establish postsynaptic α-adrenoreceptor activity. Antagonism of noradrenaline contractions is used to determine pA2 values at postsynaptic α-adrenoreceptors. The ratio of presynaptic α-adrenoreceptor antagonism (versus clonidine on the rat vas deferens) to postsynaptic α-adrenoreceptor antagonism (versus noradrenaline contractions on the rat anococcygeus muscle) is used to assess adrenoreceptor selectivity.

[6] = system: presynaptic α-adrenoreceptor; test: Presynaptic α-adrenoreceptor antagonism in the pithed rat: vas deferens, oral activity; format: in vivo; settings: 1.0 and 5.0 mg/kg
Excerpt: Thirty minutes after oral administration, the rats were pithed so as to allow electrically-induced contractions of the vas deferens to be studied in situ.

[7] = system: presynaptic α-adrenoreceptor; test: Presynaptic α-adrenoreceptor antagonism in the pithed rat: vas deferens, intravenous activity; format: in vivo; settings: for i.v. dose of antagonist causing 50% reversal of clonidine block on vas deferens: pithed rat, clonidine 100 μg/kg i.v., cumulative i.v. dosing, mean of minimum 4 rats
Procedure: This test model extends the evaluation of presynaptic α-adrenoreceptor antagonism versus clonidine on the rat vas deferens to the in vivo situation. Blood pressure and stimulation induced contractions of the vas deferens were monitored in pithed rats using the method of Brown, J., Doxey, J. C., Handley, S. and Virdee, N., Recent Advances in the Pharmacology of Adrenoceptors, Elsevier North Holland, 1978. Clonidine (100 μg/kg, i.v.) causes a prolonged pressor response and a prolonged inhibition of vas deferens contractions. The test drugs were injected intravenously in a cumulative dosing schedule and their abilities to reverse the inhibition of hypogastric nerve stimulation reflected their presynaptic antagonism.

[8] = target: T1, presynaptic α2-adrenoreceptor (rat vas deferens) (Rattus norvegicus, UniProt P22909); test: Presynaptic α-adrenoreceptor antagonism vs clonidine in isolated rat vas deferens (0.1 Hz stimulation); format: cell-based
T1 construct: Pre- and postsynaptic α-adrenoreceptor antagonism in isolated tissue experiments; from tissue; host or cells: isolated rat vas deferens
T1 sequence (P22909 1-465): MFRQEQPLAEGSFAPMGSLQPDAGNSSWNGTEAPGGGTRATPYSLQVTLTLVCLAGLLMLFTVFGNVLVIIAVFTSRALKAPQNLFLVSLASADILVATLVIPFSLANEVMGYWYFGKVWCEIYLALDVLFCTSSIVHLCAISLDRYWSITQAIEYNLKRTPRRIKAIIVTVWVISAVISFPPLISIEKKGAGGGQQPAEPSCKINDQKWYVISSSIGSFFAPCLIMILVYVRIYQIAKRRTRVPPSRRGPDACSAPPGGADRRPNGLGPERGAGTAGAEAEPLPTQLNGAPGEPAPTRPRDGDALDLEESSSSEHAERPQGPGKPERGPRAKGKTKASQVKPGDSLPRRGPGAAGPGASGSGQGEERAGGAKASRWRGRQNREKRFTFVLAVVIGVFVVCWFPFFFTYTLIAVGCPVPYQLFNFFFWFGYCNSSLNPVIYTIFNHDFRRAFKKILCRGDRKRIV
Excerpt: as §1

[9] = system: postsynaptic α-adrenoreceptor; test: Pressor responses in the pithed rat on intravenous administration; format: in vivo; settings: 1-10 mg/kg, i.v.
[10] = system: presynaptic α-adrenoreceptor; test: Reversal of clonidine inhibition of the anococcygeus muscle of the pithed rat, intravenous; format: in vivo; settings: 0.3-1.0 mg/kg, i.v.; 1 Hz stimulation
Excerpt: In contrast to the rat vas deferens, both the pre- and postsynaptic adrenoreceptors of the rat anococcygeus muscle are readily accessible to exogenously applied agents and therefore this test can be used to distinguish selective presynaptic α-adrenoreceptor antagonists from non-selective agents. Contractions of the rat anococcygeus muscle induced by low frequency (1 Hz) electrical stimulation of spinal sympathetic outflow are inhibited by low doses of clonidine. Only selective presynaptic α-adrenoreceptor antagonists will reverse the inhibitory effects of clonidine.

## c1ccc2c(c1)OCC(C1=NCCN1)O2 (stereo not drawn) [Compound A, 2-[2-(1,4-Benzodioxanyl)]-2-imidazoline hydrochloride]
[1]; 1.0 mg/kg, oral
  peak percentage fall in B.P.: -4%
[1]; 1.0 mg/kg, oral, hydrochloride
  blood pressure effect (in words): did not significantly alter blood pressure; also recorded: does not possess antihypertensive activity
[1]; 5.0 mg/kg, oral
  peak percentage fall in B.P.: -28%
[1]; 20.0 mg/kg, oral
  peak percentage fall in B.P.: -39%
[1]; 5.0 and 20.0 mg/kg, oral, hydrochloride
  mean arterial blood pressure effect (in words): dose-related falls in mean arterial blood pressure
[1]; three doses (1.0, 5.0 and 20.0 mg/kg), oral
  heart rate effect (in words): No significant effect on heart rate
[2]; 1.0 mg/kg p.o.
  inhibition of the clonidine postsynaptic effects (blood pressure increases): No inhibition
[2]; 5.0 mg/kg p.o.
  inhibition of the clonidine postsynaptic effects (blood pressure increases): some antagonism was observed
[3]; pithed rat anococcygeus, i.v.
  presynaptic α-adrenoreceptor antagonist potency, rank among compounds studied: the most potent presynaptic α-adrenoreceptor antagonist studied
[3]
  Intravenous dose of antagonist causing 50% reversal of guanabenz block of anococcygeus muscle: 0.021 mg/kg
[4]; 0.1-1.0 mg/kg, i.v.
  reversal of clonidine-induced hypothermia (in words): statistically significant dose-related reversal
[5]
  Postsynaptic antagonism pA2 vs Noradrenaline (anococcygeus): 6.2
[6]
  antagonism of the presynaptic action of clonidine (in words): dose-dependent competitive antagonism
[7]; pithed rat vas deferens, i.v., Table 2
  presynaptic α-adrenoreceptor antagonist potency, rank among compounds studied: clearly the most potent presynaptic α-adrenoreceptor antagonist of those studied
[7]
  i.v. dose of antagonist causing 50% reversal of clonidine block on vas deferens: 0.009 mg/kg
[8]; Table 1
  presynaptic α-adrenoreceptor antagonist potency, rank among compounds studied: the most potent presynaptic α-adrenoreceptor antagonist

## Cc1ccc(N(CC2=NCCN2)c2cccc(O)c2)cc1 [Phentolamine mesylate]
[3]
  Intravenous dose of antagonist causing 50% reversal of guanabenz block of anococcygeus muscle: > 1.4 mg/kg
[7]
  i.v. dose of antagonist causing 50% reversal of clonidine block on vas deferens: 0.12 mg/kg

## CC1(C2=NCCN2)Oc2ccccc2O1 [Compound B, 2-[2-(2-methyl-1,3-benzodioxyl)]-2-imidazoline hydrochloride]
[1]; 1.0 mg/kg, oral
  blood pressure effect (in words): significant antihypertensive effect
  peak percentage fall in B.P.: -15%
[1]; 5.0 mg/kg, oral
  peak percentage fall in B.P.: -25%
[1]; 20.0 mg/kg, oral
  peak percentage fall in B.P.: -14%
[1]; 20 mg/kg, p.o. versus 5 mg/kg, p.o.
  maximum hypotensive effect following 20 mg/kg (in words): less than that produced by 5 mg/kg, p.o. compound B
[1]; 1-20 mg/kg, p.o.
  dose-relation of the falls in blood pressure (in words): not dose-related
[4]; 30 mg/kg i.v.
  effect on clonidine-induced hypothermia (in words): potentiated the clonidine-induced hypothermia
[4]; 1-10 mg/kg, i.v.
  reversal of clonidine-induced hypothermia (in words): partial reversal
  reversal of clonidine-induced hypothermia compared with vehicle (significance, in words): not significantly different from animals treated with vehicle
[9]
  pressor responses / postsynaptic α-adrenoreceptor agonist activity (in words): pressor responses in the pithed rat were seen
[5]
  Postsynaptic antagonism pA2 vs Noradrenaline (anococcygeus): < 4.4
[7]; cumulative i.v. dose 14.4 mg/kg
  maximum reversal of the inhibitory effects of clonidine on hypogastric nerve stimulation: 66%
[7]
  i.v. dose of antagonist causing 50% reversal of clonidine block on vas deferens: 5.60 mg/kg
[8]; isolated rat vas deferens, 0.1 Hz, mean of minimum 5 experiments, "<" means inactive at a concentration which would have given the pA indicated, read-out: Presynaptic antagonism pA2 vs Clonidine (vas deferens) (converted)
  Kb: 631 nM
[8]; presynaptic antagonism (vs clonidine, vas deferens) to postsynaptic antagonism (vs noradrenaline, anococcygeus)
  Pre/postsynaptic ratio: > 67

## CN1CCN2c3ccccc3Cc3ccccc3C2C1 (stereo not drawn) [Mianserin]
[7]; cumulative i.v. dose 4.4 mg/kg
  maximum reversal of the inhibitory effects of clonidine on hypogastric nerve stimulation: 36%

## COC(=O)[C@@H]1[C@H]2C[C@H]3c4[nH]c5ccccc5c4CCN3C[C@@H]2CC[C@@H]1O [Yohimbine]
[10]
  reversal of the inhibitory action of clonidine on the anococcygeus muscle: fully reversed

## Cc1ccc(N(CC2=NCCN2)c2cccc(O)c2)cc1 [Phentolamine]
[1]; 1.0 mg/kg, oral
  blood pressure effect (in words): reduced blood pressure
  peak percentage fall in B.P.: -16%
[1]; 5.0 mg/kg, oral
  peak percentage fall in B.P.: -24%
[1]; 20 mg/kg, oral
  heart rate effect (in words): reflexly elevated
[1]; 20.0 mg/kg, oral
  peak percentage fall in B.P.: -41%
[1]; two smaller doses (1.0 and 5.0 mg/kg), oral
  heart rate effect (in words): not greatly affected
[3]; cumulative i.v. dose of 1.4 mg/kg
  presynaptic α-adrenoreceptor antagonist activity (in words): devoid of presynaptic α-adrenoreceptor antagonist activity

## COC(=O)[C@@H]1[C@H]2C[C@H]3c4[nH]c5ccccc5c4CCN3C[C@@H]2CC[C@@H]1O [Yohimbine HCl]
[3]
  Intravenous dose of antagonist causing 50% reversal of guanabenz block of anococcygeus muscle: 0.280 mg/kg
[7]
  i.v. dose of antagonist causing 50% reversal of clonidine block on vas deferens: 0.86 mg/kg

## CN1CCN2c3ccccc3Cc3ccccc3C2C1 (stereo not drawn) [Mianserin HCl]
[7]
  i.v. dose of antagonist causing 50% reversal of clonidine block on vas deferens: > 4.4 mg/kg
